Measured values: ChEMBL document CHEMBL1781881, “Adenosine-derived inhibitors of 78 kDa glucose regulated protein (Grp78) ATPase: insights into isoform selectivity” (J Med Chem, 2011)

Legend:
[1] = Inhibition of HSP70 by fluorescence polarization assay
HCT-116 = test: Antiproliferative activity against human HCT116 cells; assay type: functional

Compound	Ki [1]	GI50 (HCT-116)
Nc1ncnc2c1nc(NCc1ccc3ccccc3n1)n2[C@@H]1O[C@H](CO)[C@@H](O)[C@H]1O	4320 nM	
CNc1nc2c(N)ncnc2n1[C@@H]1O[C@H](COCc2ccccc2)[C@@H](O)[C@H]1O	1100 nM	
CNc1nc2c(N)ncnc2n1[C@@H]1O[C@H](COCC2CCCCC2)[C@@H](O)[C@H]1O	4070 nM	
CNc1nc2c(N)ncnc2n1[C@@H]1O[C@H](COCc2cccnc2)[C@@H](O)[C@H]1O	450 nM	
CNc1nc2c(N)ncnc2n1[C@@H]1O[C@H](CO)[C@@H](O)[C@H]1O	8300 nM	
N#Cc1ccc(COC[C@H]2O[C@@H](n3c(NCc4ccc5ncccc5c4)nc4c(N)ncnc43)[C@H](O)[C@@H]2O)cc1	310 nM	> 80000 nM
N#Cc1ccc(COC[C@H]2O[C@@H](n3c(NCc4ccc(Cl)c(Cl)c4)nc4c(N)ncnc43)[C@H](O)[C@@H]2O)cc1	120 nM	5000 nM
COC[C@H]1O[C@@H](n2c(NCc3ccc(Cl)c(Cl)c3)nc3c(N)ncnc32)[C@H](O)[C@@H]1O	1440 nM	
Nc1ncnc2c1nc(NCc1ccc3ncccc3c1)n2[C@@H]1O[C@H](CO)[C@@H](O)[C@H]1O	1290 nM	> 80000 nM
Nc1ncnc2c1nc(N)n2[C@@H]1O[C@H](CO)[C@@H](O)[C@H]1O	4460 nM	50 nM
Nc1ncnc2c1nc(NCc1ccc(Cl)c(Cl)c1)n2[C@@H]1O[C@H](CO)[C@@H](O)[C@H]1O	4310 nM	26000 nM
Nc1ncnc2c1nc(NCc1ccc(Cl)c(Cl)c1)n2[C@@H]1O[C@H](COCc2ccccc2)[C@@H](O)[C@H]1O	1050 nM	
Nc1ncnc2c1ncn2[C@@H]1O[C@H](COP(=O)(O)OP(=O)(O)O)[C@@H](O)[C@H]1O [ADENOSINE DIPHOSPHATE]	110 nM	
